From ChEMBL document CHEMBL1201862, “PubChem BioAssay data set” (2004)
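A five-concentration, 48-hour dose response in 96-well plates underlies each endpoint, interpolated linearly between surrounding concentrations. Abbreviation: GI50, concentration required for 50% inhibition of growth.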 The source made the active and inactive calls. Rule as the data show it: active = GI50 up to about 1.1 µM and inactive = higher.

Experiments:
Experiment in all cases: NCI tumour cell line growth inhibition, 48 h
[1] = system: T47D
[2] = system: TK-10
[3] = system: HT-29
[4] = system: KM12
[5] = system: BT-549
[6] = system: NCI-H23
[7] = system: EKVX
[8] = system: 786-0
[9] = system: LOX IMVI
[10] = system: NCI-H522
[11] = system: OVCAR-3
[12] = system: SN12C
[13] = system: ACHN
[14] = system: K562
[15] = system: SK-MEL-2
[16] = system: M14
[17] = system: IGROV-1
[18] = system: Malme-3M
[19] = system: COLO 205
[20] = system: HCC 2998

Compound	GI50 [1]	GI50 [2]	GI50 [3]	GI50 [4]	GI50 [5]	GI50 [6]	GI50 [7]	GI50 [8]	GI50 [9]	GI50 [10]	GI50 [11]	GI50 [12]	GI50 [13]	GI50 [14]	GI50 [15]	GI50 [16]	GI50 [17]	GI50 [18]	GI50 [19]	GI50 [20]
c1cncc(CNCc2cccnc2)c1	> 100 µM (inactive)	> 100 µM (inactive)	> 100 µM (inactive)	> 100 µM (inactive)	> 100 µM (inactive)	> 100 µM (inactive)	> 100 µM (inactive)	> 100 µM (inactive)	> 100 µM (inactive)	> 100 µM (inactive)	> 100 µM (inactive)	> 100 µM (inactive)	> 100 µM (inactive)	> 100 µM (inactive)	> 100 µM (inactive)	> 100 µM (inactive)	> 100 µM (inactive)	> 100 µM (inactive)	> 100 µM (inactive)	–
Clc1nc(-c2ccccc2)nc(Cl)c1Cl	10 µM (inactive)	26.7 µM (inactive)	9.89 µM (inactive)	11.6 µM (inactive)	20.6 µM (inactive)	14.7 µM (inactive)	16.2 µM (inactive)	8.05 µM (inactive)	2.26 µM (inactive)	3.21 µM (inactive)	8.38 µM (inactive)	16.8 µM (inactive)	4.94 µM (inactive)	3.76 µM (inactive)	–	7.14 µM (inactive)	8.69 µM (inactive)	5.31 µM (inactive)	10.3 µM (inactive)	7.71 µM (inactive)
CC1=CC(C)(C)Nc2ccc(CSc3ccccc3)cc21	–	39.5 µM (inactive)	16.1 µM (inactive)	26.2 µM (inactive)	59.2 µM (inactive)	32.6 µM (inactive)	22.1 µM (inactive)	23.2 µM (inactive)	30.7 µM (inactive)	16.8 µM (inactive)	18.7 µM (inactive)	19.1 µM (inactive)	46.6 µM (inactive)	18 µM (inactive)	23.4 µM (inactive)	26.6 µM (inactive)	52.1 µM (inactive)	17.9 µM (inactive)	22 µM (inactive)	17.2 µM (inactive)
O=C1c2ccccc2C(O)(O)C1(O)C1(O)C(=O)c2ccccc2C1(O)O (stereo not drawn)	23.1 µM (inactive)	23 µM (inactive)	> 100 µM (inactive)	39.6 µM (inactive)	55.6 µM (inactive)	20.8 µM (inactive)	36.3 µM (inactive)	38.9 µM (inactive)	23 µM (inactive)	19.4 µM (inactive)	25.1 µM (inactive)	16.1 µM (inactive)	21.3 µM (inactive)	–	> 100 µM (inactive)	35 µM (inactive)	41.7 µM (inactive)	22.1 µM (inactive)	20.7 µM (inactive)	–
CC(=O)n1cc(OP(=O)(Oc2ccccc2)Oc2ccccc2)c2ccccc21	32.7 µM (inactive)	50.6 µM (inactive)	36 µM (inactive)	35.6 µM (inactive)	34.4 µM (inactive)	33.3 µM (inactive)	–	32.1 µM (inactive)	23.2 µM (inactive)	–	24.2 µM (inactive)	29.2 µM (inactive)	–	23.2 µM (inactive)	22.2 µM (inactive)	18.9 µM (inactive)	8.53 µM (inactive)	36.4 µM (inactive)	13.2 µM (inactive)	–
N=C(N)N/N=C/c1c(-c2ccc(Cl)c(Cl)c2Cl)nc2sccn12	1.59 µM (inactive)	1.4 µM (inactive)	1.64 µM (inactive)	1.58 µM (inactive)	1.56 µM (inactive)	1.29 µM (inactive)	1.5 µM (inactive)	1.41 µM (inactive)	1.64 µM (inactive)	1.23 µM (inactive)	1.57 µM (inactive)	1.5 µM (inactive)	3.23 µM (inactive)	–	1.74 µM (inactive)	1.57 µM (inactive)	1.27 µM (inactive)	–	1.42 µM (inactive)	–
Cc1ccsc1C(=O)C(CC(=O)c1cccs1)c1ccsc1 (stereo not drawn)	14.5 µM (inactive)	> 100 µM (inactive)	93.1 µM (inactive)	> 100 µM (inactive)	66.5 µM (inactive)	> 100 µM (inactive)	79.6 µM (inactive)	> 100 µM (inactive)	–	> 100 µM (inactive)	> 100 µM (inactive)	> 100 µM (inactive)	> 100 µM (inactive)	> 100 µM (inactive)	–	> 100 µM (inactive)	> 100 µM (inactive)	> 100 µM (inactive)	> 100 µM (inactive)	> 100 µM (inactive)
O=C(O)c1cc(O)nc(SCc2ccccc2)n1	> 100 µM (inactive)	> 100 µM (inactive)	> 100 µM (inactive)	> 100 µM (inactive)	> 100 µM (inactive)	> 100 µM (inactive)	> 100 µM (inactive)	> 100 µM (inactive)	> 100 µM (inactive)	> 100 µM (inactive)	> 100 µM (inactive)	> 100 µM (inactive)	> 100 µM (inactive)	> 100 µM (inactive)	> 100 µM (inactive)	> 100 µM (inactive)	> 100 µM (inactive)	> 100 µM (inactive)	–	–
COc1ccccc1NC(=S)N/N=C/c1c(C)n(C)n(-c2ccccc2)c1=O	> 100 µM (inactive)	> 100 µM (inactive)	> 100 µM (inactive)	31.8 µM (inactive)	> 100 µM (inactive)	> 100 µM (inactive)	> 100 µM (inactive)	> 100 µM (inactive)	49.8 µM (inactive)	–	–	–	> 100 µM (inactive)	> 100 µM (inactive)	> 100 µM (inactive)	61.8 µM (inactive)	> 100 µM (inactive)	–	> 100 µM (inactive)	> 100 µM (inactive)
OCC1OC(n2nc(-c3ccccc3)nc2-c2cnccn2)C(O)C1O (stereo not drawn)	> 100 µM (inactive)	> 100 µM (inactive)	> 100 µM (inactive)	> 100 µM (inactive)	> 100 µM (inactive)	> 100 µM (inactive)	> 100 µM (inactive)	> 100 µM (inactive)	> 100 µM (inactive)	> 100 µM (inactive)	> 100 µM (inactive)	> 100 µM (inactive)	–	> 100 µM (inactive)	–	> 100 µM (inactive)	> 100 µM (inactive)	–	> 100 µM (inactive)	> 100 µM (inactive)
C#CC(O)/C=C/CCCCCCC#CC/C=C\CC#CCCCCCC/C=C/C(O)C#C (stereo not drawn)	1.4 µM (inactive)	2.99 µM (inactive)	2.06 µM (inactive)	2.32 µM (inactive)	2.86 µM (inactive)	0.701 µM (active)	2.3 µM (inactive)	2.09 µM (inactive)	0.0104 µM (active)	–	2.7 µM (inactive)	1.66 µM (inactive)	3.9 µM (inactive)	2.05 µM (inactive)	2.99 µM (inactive)	1.03 µM (active)	0.561 µM (active)	–	2 µM (inactive)	1.8 µM (inactive)
Cc1ccnc(NC(=S)Nc2ccc([N+](=O)[O-])cc2)c1	> 100 µM (inactive)	> 100 µM (inactive)	> 100 µM (inactive)	> 100 µM (inactive)	> 100 µM (inactive)	> 100 µM (inactive)	> 100 µM (inactive)	75.3 µM (inactive)	> 100 µM (inactive)	–	–	–	> 100 µM (inactive)	> 100 µM (inactive)	> 100 µM (inactive)	> 100 µM (inactive)	46.2 µM (inactive)	–	–	> 100 µM (inactive)
COc1cc2c(cc1OC)C(OC)N(C)c1c-2ccc2cc3c(cc12)OCO3 (stereo not drawn)	–	6.75 µM (inactive)	1.38 µM (inactive)	0.839 µM (active)	3.06 µM (inactive)	1.67 µM (inactive)	1.82 µM (inactive)	1.86 µM (inactive)	5.36 µM (inactive)	0.152 µM (active)	1.5 µM (inactive)	0.813 µM (active)	4.69 µM (inactive)	1.75 µM (inactive)	1.98 µM (inactive)	3.3 µM (inactive)	0.805 µM (active)	3.51 µM (inactive)	0.733 µM (active)	1.65 µM (inactive)
OCc1ccc2c(c1)CC1(Cc3ccccc3C1)C2	26.6 µM (inactive)	21.2 µM (inactive)	16.8 µM (inactive)	14.4 µM (inactive)	3.77 µM (inactive)	33 µM (inactive)	26.1 µM (inactive)	15.1 µM (inactive)	15.4 µM (inactive)	22.5 µM (inactive)	23 µM (inactive)	17.4 µM (inactive)	21 µM (inactive)	7.11 µM (inactive)	–	–	> 10 µM (inactive)	13.6 µM (inactive)	15.6 µM (inactive)	27.7 µM (inactive)
COc1ccc(CCNC(=O)CCCCCO)cc1OC	> 100 µM (inactive)	> 100 µM (inactive)	> 100 µM (inactive)	> 100 µM (inactive)	> 100 µM (inactive)	> 100 µM (inactive)	> 100 µM (inactive)	> 100 µM (inactive)	–	> 100 µM (inactive)	> 100 µM (inactive)	> 100 µM (inactive)	> 100 µM (inactive)	> 100 µM (inactive)	> 100 µM (inactive)	> 100 µM (inactive)	> 100 µM (inactive)	–	> 100 µM (inactive)	> 100 µM (inactive)
CCOC(=O)C1CCC(=O)N1C(=O)c1ccccc1 (stereo not drawn)	> 100 µM (inactive)	> 100 µM (inactive)	> 100 µM (inactive)	> 100 µM (inactive)	> 100 µM (inactive)	> 100 µM (inactive)	> 100 µM (inactive)	> 100 µM (inactive)	92.3 µM (inactive)	> 100 µM (inactive)	> 100 µM (inactive)	> 100 µM (inactive)	> 100 µM (inactive)	> 100 µM (inactive)	–	> 100 µM (inactive)	> 100 µM (inactive)	> 100 µM (inactive)	–	> 100 µM (inactive)
